From patent US20230028441A1, “NOVEL HETEROARYL-TRIAZOLE COMPOUNDS AS PESTICIDES” (Bayer Aktiengesellschaft, priority 2019, published 2023)
Where two headings read alike, the source gives them in different places.

What was measured:
Assay type in all cases: in vivo
[1] = tested on: adult engorged female ticks (Rhipicephalus microplus); test: Rhipicephalus (Boophilus) microplus injection test; conditions: 168 h, read-out: efficacy (infertile eggs)
Procedure, shortened: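 Compound was dissolved in DMSO at 10 mg per 0.5 mL and diluted with DMSO to the test concentration. Five engorged adult females received a 1 μL abdominal injection and were kept in a climate chamber. After 7 days, fertile egg deposition was scored, with unclear eggs held until hatching at about 42 days; 100% efficacy means all eggs were infertile.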

[2] = tested on: fall armyworm larvae (Spodoptera frugiperda); test: Spodoptera frugiperda spray test (maize leaf sections); conditions: 168 h
Procedure, shortened: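 Maize leaf sections were sprayed with compound formulated in acetone/DMF and diluted in water containing 1000 ppm emulsifier. Once dry, sections were infested with fall armyworm larvae. Mortality (%) was scored after 7 days.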

[3] = tested on: adult brown dog ticks (Rhipicephalus sanguineus); test: Rhipicephalus sanguineus in-vitro contact test with adult brown dog ticks; conditions: after 48 hours, read-out: efficacy (ticks dead or moribund); for pest or weed control at 1 µg/cm2, 100 g/ha: 1 μg/cm^2 (=100 g/ha); for pest or weed control at 5 µg/cm2, 500 g/ha: 5 μg/cm^2 (=500 g/ha)
Procedure, shortened: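 Compound in acetone coated onto glass tube inner walls at 900 ppm, giving 5 μg/cm^2. Adult ticks (5-10 per tube) held at room temperature for 48 h, then placed on a 45-50° C. heating plate for up to 5 min. Ticks unable to climb away counted dead or moribund; efficacy given as % dead/moribund.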

[4] = tested on: cattle tick larvae (Rhipicephalus microplus), strain Parkhurst, resistant against synthetic pyrethroids; test: Rhipicephalus (Boophilus) microplus in-vitro contact test, larval cattle tick; conditions: read-out: efficacy (larvae dead or moribund)
Procedure, shortened: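 Acetone solutions of compound were coated on glass tube walls (900 ppm giving 5 μg/cm^2) and dried. 20–50 pyrethroid-resistant Parkhurst larvae were held per tube at 27° C and 85% relative humidity; after 48 h negative geotaxis scored efficacy as percent larvae dead or moribund.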

[5] = tested on: larvae of the banded cucumber beetle (Diabrotica balteata); test: Diabrotica balteata spray test; conditions: 168 h, read-out: efficacy (seedlings grown up)
Procedure, shortened: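 Germinated wheat seedlings (5 per well, agar plates) sprayed with compound in acetone/DMF diluted in water with 1000 ppm emulsifier, then infested with 10-20 larvae per unit. Efficacy scored after 7 days as % seedling growth relative to untreated, uninfested control (100% = normal growth, 0% = none).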

[6] = tested on: adult unfed cat fleas (Ctenocephalides felis); test: Ctenocephalides felis oral test; conditions: 48 h
Procedure, shortened: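 About 20 adult unfed Ctenocephalides felis fed through parafilm on cattle blood dosed with compound (DMSO stock diluted in blood), blood chamber at 37°C, fleas at room temperature. Mortality (%) scored after 2 days; 100% means all fleas killed.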

[7] = tested on: green peach aphid (Myzus persicae); test: Myzus persicae oral test; conditions: 120 h
Procedure, shortened: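 Compound was dissolved at 1 part by weight in 100 parts acetone, then diluted with water to test concentration and combined with IPL41 insect medium (33%+15% sugar). A mixed aphid population fed on this through a parafilm seal, and mortality (%) was scored after 5 days.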

[8] = tested on: caterpillars of the fall army worm (Spodoptera frugiperda); test: Spodoptera frugiperda spray test (cotton leaves); conditions: 168 h
Description: Solvent: 14 parts by weight of dimethylformamide
Emulsifier: alkylaryl polyglycol ether
To produce a suitable preparation of active compound, 1 part by weight of active compound is mixed with the stated amount of solvent and is diluted with water, containing an emulsifier concentration of 1000 ppm, to the desired concentration. Further test concentrations are prepared by dilution with emulsifier containing water. Ammonium salt and/or penetration enhancer in a dosage of 1000 ppm are added to the desired concentration if necessary.
Cotton leaves (Gossypium hirsutum) are treated by being sprayed with the preparation of the active compound of the desired concentration and are infested with caterpillars of the fall army worm (Spodoptera frugiperda).
After 7 days mortality in % is determined. 100% means all the caterpillars have been killed and 0% means none of the caterpillars have been killed.

[9] = tested on: larvae of the southern green stink bug (Nezara viridula); test: Nezara viridula spray test; conditions: in Hordeum vulgare, 96 h
Procedure, shortened: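 Barley plants infested with Nezara viridula larvae were sprayed with compound in acetone/dimethylformamide, diluted in water containing 1000 ppm alkylarylpolyglycol ether emulsifier. Mortality (%) was scored after 4 days; 100% means all stink bugs killed.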

[10] = tested on: adult cat fleas (Ctenocephalides felis); test: Ctenocephalides felis in-vitro contact test, adult cat flea; conditions: 5 μg/cm^2 (=500 g/ha), after 48 hours, read-out: efficacy (fleas dead or moribund)
Procedure, shortened: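 Acetone solutions were coated on glass tube walls, 900 ppm giving 5 μg/cm^2. After drying, 5-10 adult fleas per tube were held 48 h at room temperature. Fleas unable to climb away from a 45-50 °C heating plate within 5 min were scored dead or moribund, as % efficacy.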

[11] = tested on: brown planthopper (Nilaparvata lugens); test: Nilaparvata lugens spray test; conditions: in Oryza sativa, 96 h
Procedure, shortened: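 Rice plants (Oryza sativa) sprayed with compound in acetone/DMF diluted in water containing 1000 ppm alkylarylpolyglycol ether emulsifier, then infested with planthoppers. Mortality % scored after 4 days (100% = all killed, 0% = none killed).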

[12] = 4 μg/animal, egg deposition after 7 days
[13] = 20 μg/animal, egg deposition after 7 days
[14] = 5 μg/cm^2 (=500 g/ha), after 48 hours
[15] = 100 g/ha (=32 μg/well), after 7 days, wheat seeds
[16] = 500 g/ha (=160 μg/well), after 7 days, wheat seeds
[17] = 100 ppm in cattle blood, after 2 days

Compound | mortality at 100 g/ha [2] | pest or weed control at 5 µg/cm2, 500 g/ha [3] | mortality at 4 ppm [7] | mortality at 20 ppm [8] | pest or weed control at 0.004 mg [1, 12] | pest or weed control at 5 µg/cm2 [4, 14] | pest or weed control at 32 µg/disc, 100 g/ha [5, 15] | mortality at 100 ppm [6, 17] | mortality at 500 g/ha [9] | pest or weed control at 5 µg/cm2 [10] | further results
COC(=O)Nc1nc(C(C)NC(=O)c2cc(Cl)cc(C(F)(F)F)c2)n(-c2ccc(Cl)cn2)n1 (racemic) [I-010, methyl N-[1-(5-chloro-2-pyridyl)-5-[1-[[3-chloro-5-(trifluoromethyl)benzoyl]amino]ethyl]-1,2,4-triazol-3-yl]carbamate] | 100% | 100% | 90% | 80% | – | – | – | – | – | – | pest or weed control at 0.004 mg [1]: 100%; pest or weed control at 0.02 mg [1]: 100%; mortality at 500 g/ha [2]: 100%; pest or weed control at 1 µg/cm2, 100 g/ha [3]: 100%; pest or weed control at 5 µg/cm2 ([4]; 48 h): 100%; pest or weed control at 32 µg/disc, 100 g/ha [5]: 100%; pest or weed control at 160 µg/disc, 500 g/ha [5]: 100%; mortality at 100 ppm [6]: 100%
CC(=O)Nc1nc(C(C)NC(=O)c2cc(Cl)cc(C(F)(F)F)c2)n(-c2ccc(Cl)cn2)n1 (racemic) [I-011, N-[1-[5-acetamido-2-(5-chloro-2-pyridyl)-1,2,4-triazol-3-yl]ethyl]-3-chloro-5-(trifluoromethyl)benzamide] | 100% | 80% | 100% | 100% | 100% | 100% | 100% | 100% | 90% | – | pest or weed control at 0.02 mg [1, 13]: 100%; mortality at 500 g/ha [2]: 100%; pest or weed control at 160 µg/disc, 500 g/ha [5, 16]: 100%
CC(NC(=O)c1cc(Cl)cc(C(F)(F)F)c1)c1nc(NC(=O)C2CC2(F)F)nn1-c1ccc(Cl)cn1 (centres unmarked) [I-018] | – | – | – | 100% | 100% | 100% | 100% | 100% | – | 100% | pest or weed control at 0.02 mg [1, 13]: 100%; pest or weed control at 160 µg/disc, 500 g/ha [5, 16]: 100%
CSc1nc(C(C)NC(=O)c2cc(Cl)cc(C(F)(F)F)c2)n(-c2ccc(Cl)cn2)n1 (centres unmarked) [I-062] | – | 100% | – | 100% | 100% | 100% | 100% | – | 100% | 100% | pest or weed control at 0.02 mg [1, 13]: 100%; mortality at 500 g/ha [2]: 100%; pest or weed control at 160 µg/disc, 500 g/ha [5, 16]: 100%; mortality at 100 g/ha [9]: 100%
CNc1nc(C(C)NC(=O)c2cc(Cl)cc(OC(F)(F)F)c2)n(-c2ncccn2)n1 (centres unmarked) [I-099] | 100% | 80% | 100% | 100% | 100% | 90% | 100% | 100% | – | 100% | –
CC(NC(=O)c1cc(F)cc(C#N)c1)c1nc(N)nn1-c1ncccn1 (centres unmarked) [I-105] | 100% | – | 100% | 100% | 100% | 100% | 100% | 100% | – | 100% | –
CC(NC(=O)c1cc(Br)cc(Br)c1)c1nc(N)nn1-c1ccc(C#N)cn1 (centres unmarked) [I-114] | 100% | – | 90% | 100% | – | 100% | 100% | – | – | – | –
CC(NC(=O)c1cc(Br)cc(C(F)(F)F)c1)c1nc(N)nn1-c1ccc(C#N)cn1 (centres unmarked) [I-117] | 100% | – | 100% | 100% | 100% | 100% | 100% | 100% | 100% | – | –
CC(NC(=O)c1cc(Cl)cc(OC(F)(F)F)c1)c1nc(N)nn1-c1ccc(C#N)cn1 (centres unmarked) [I-118] | 100% | – | 100% | 100% | 100% | 100% | 100% | 100% | 100% | 90% | –
CNc1nc([C@H](C)NC(=O)c2cc(Br)cc(C(F)(F)F)c2)n(-c2ncccn2)n1 [I-136] | 100% | 100% | – | 100% | – | 100% | 100% | – | 90% | – | pest or weed control at 1 µg/cm2, 100 g/ha [3]: 100%; mortality at 500 g/ha [11]: 100%
C[C@H](NC(=O)c1cc(OC(F)(F)F)cc(C2CC2)c1)c1nc(N)nn1-c1ccc(C#N)cn1 [I-154] | 100% | 80% | – | 100% | – | 100% | 100% | – | 100% | 100% | pest or weed control at 1 µg/cm2, 100 g/ha [3]: 80%
